Values of other authors, collected in US20060009471A1, “Amido compounds and their use as pharmaceuticals” (priority 2004, published 2006).

Biological target: T1, 11βHSD1 in the eye (Homo sapiens, UniProt P28845)
T1 construct: host or cells: eye (non-pigmented epithelial cells) of healthy volunteers, in vivo
Conditions: healthy volunteers, after seven days of carbenoxolone treatment

T1 sequence (P28845 whole entry): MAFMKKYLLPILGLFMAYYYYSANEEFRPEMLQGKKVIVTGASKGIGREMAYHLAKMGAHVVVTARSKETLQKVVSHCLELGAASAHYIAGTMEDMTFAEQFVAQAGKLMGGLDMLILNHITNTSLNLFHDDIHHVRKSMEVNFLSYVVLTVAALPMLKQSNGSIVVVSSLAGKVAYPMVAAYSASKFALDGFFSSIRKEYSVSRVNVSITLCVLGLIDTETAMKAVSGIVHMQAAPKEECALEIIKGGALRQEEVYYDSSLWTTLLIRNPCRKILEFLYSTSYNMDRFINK

IOP reduced: 18%
SMILES: CC1(C)[C@@H](OC(=O)CCC(=O)O)CC[C@]2(C)[C@H]3C(=O)C=C4[C@@H]5C[C@@](C)(C(=O)O)CC[C@]5(C)CC[C@@]4(C)[C@]3(C)CC[C@@H]12 [carbenoxolone]
